Source: ChEMBL document CHEMBL2016451, “Antimycobacterial activity of bisbenzylisoquinoline alkaloids from Tiliacora triandra against multidrug-resistant isolates of Mycobacterium tuberculosis” (Bioorg Med Chem Lett, 2012)
≈ marks a conversion by molar mass, not a printed value.

Key:
[1] = system: Mycobacterium tuberculosis; experiment: Antimycobacterial activity against p-aminosalicylic acid-resistant Mycobacterium tuberculosis H37Rv ATCC 35821 after 16 to 24 hrs by alamar blue assay; type: functional
MRC5 [2] = experiment: Cytotoxicity against human MRC5 cells at 2.1 ug/ml by MTT assay; type: cell-based
MRC5 [3] = experiment: Cytotoxicity against human MRC5 cells at 1 ug/ml by MTT assay; type: cell-based
MRC5 [4] = experiment: Cytotoxicity against human MRC5 cells at 6 ug/ml by MTT assay; type: cell-based
[5] = system: Mycobacterium tuberculosis; experiment: Antimycobacterial activity against Mycobacterium tuberculosis H37Rv after 16 to 24 hrs by alamar blue assay; type: functional
[6] = system: Mycobacterium tuberculosis; experiment: Antimycobacterial activity against Mycobacterium tuberculosis H37Ra after 16 to 24 hrs by alamar blue assay; type: functional
MRC5 [7] = experiment: Cytotoxicity against human MRC5 cells at 2 ug/ml by MTT assay; type: cell-based
MRC5 [8] = experiment: Cytotoxicity against human MRC5 cells by MTT assay; type: cell-based

Compound	MIC [1] [mg/L]	Activity (MRC5 [2])	Activity (MRC5 [3])	Activity (MRC5 [4])	MIC [5] [mg/L]	MIC [6] [mg/L]	Activity (MRC5 [7])	IC50 (MRC5 [8]) [mg/L]
COc1ccc2cc1-c1cc(ccc1O)C[C@@H]1NCCc3cc4c(cc31)Oc1c(c(OC)cc3c1[C@H](C2)N(C)CC3)O4	1.5 (≈ 2.67 µM)	Non-toxic	Non-toxic	Non-toxic	3.1 (≈ 5.51 µM)	3.1 (≈ 5.51 µM)	Non-toxic	3.8 (≈ 6.75 µM)
COc1ccc2cc1-c1cc(cc(Br)c1O)C[C@H]1c3cc4c(cc3CCN1C)Oc1c(OC)cc3c(c1O4)[C@H](C2)N(C)CC3	1.5 (≈ 2.29 µM)	Non-toxic	Non-toxic	Non-toxic	3.1 (≈ 4.73 µM)	6.2 (≈ 9.46 µM)	Non-toxic	20 (≈ 30.5 µM)
COc1ccc2cc1-c1cc(ccc1O)C[C@H]1c3cc4c(cc3CCN1C)Oc1c(OC)cc3c(c1O4)[C@@H](C2)N(C)CC3 [TILIACORINE]	3.1 (≈ 5.38 µM)	Non-toxic	Non-toxic	Non-toxic	3.1 (≈ 5.38 µM)	3.1 (≈ 5.38 µM)	Non-toxic	3.87 (≈ 6.71 µM)
COc1ccc2cc1-c1cc(ccc1O)C[C@H]1c3cc4c(cc3CCN1C)Oc1c(OC)cc3c(c1O4)[C@H](C2)N(C)CC3 [TILIACORININE]	3.1 (≈ 5.38 µM)	Non-toxic	Non-toxic	Non-toxic	6.2 (≈ 10.8 µM)	3.1 (≈ 5.38 µM)	Non-toxic	3.13 (≈ 5.43 µM)
